# Assay results published in US11491117B2, “Compounds for the prevention and treatment of glucose intolerance related conditions and obesity” (SORBONNE UNIVERSITÉ, priority 2017, dated 2022).
# Test system: C57BL/6J mice fed control chow diet (CHD) or high fat diet (HFD)
# Assay: Chronic subcutaneous infusion in mice fed control chow or high fat diet: body growth, glucose homeostasis (IPGTT), insulin secretion, organ weight, liver triglycerides
# Format: in vivo, mouse
# Procedure: Six weeks-old C57BL/6J male mice (Janvier Labs, Courtaboeuf, France) were received and acclimated in specific pathogen free (SPF) maintenance condition. Mice had free access to a standard chow diet (R04-40, Safe, Augy, France) and were kept on 12 h light/dark cycle. After one week, a group of 12 mice was fed control carbohydrate diet (CHD) (D 12450Ki, Research diets, NJ) and a group of 12 mice was fed high fat (60% fat and sucrose) diet (HFD) (D12492i, Research diets, NJ).
# After three weeks of metabolite treatment (i.e. four weeks of HFD feeding) an intra-peritoneal glucose tolerance test (IPGTT) (2 g/kg) was performed in conscious mice following an overnight fast. Blood was collected from the tail vein before glucose injection and 15, 30, 60 and 120 minutes afterwards. Additional blood samples were collected during the IPGTT in GK rats 15, 90, 180 and 240 minutes after glucose injection. Blood glucose levels were determined using an Accu-Check® Performa (Roche Diagnostics, Meylan, France). Additional blood samples were collected at base line and 30 minutes after glucose injection in Microvette® CB 300 Lithium Heparin (Sarstedt, Marnay, France). Plasma was separated by centrifugation and stored at −80° C. until insulin radioimmunoassay. Evaluation of overall glucose tolerance was obtained from cumulative glycemia (GCum) and the ΔG, which were determined by the total increment of plasma glucose values during the IPGTT (GCum) and the cumulative glycemia during the test above baseline (ΔG). After six weeks of metabolite treatment, mice were killed by decapitation and organ were dissected and weighed. Half of liver, fat and pancreas samples were snap frozen in liquid nitrogen and stored at −80° C. for molecular studies, and the second half processed for histopathology. All procedures were authorized following review by the institutional ethic committee and carried out under national license condition (Ref 00486.02).
# Blood glucose was measured using an Accu-Check® Performa (Roche Diagnostics, Meylan, France) and plasma insulin was determined using Insulin ELISA kits (Mercodia, Uppsala, Sweden). For determination of liver triglycerides, liver samples (100 mg) were homogenized and incubated in NonidetP-40 (5%) and supernatants containing triglycerides were collected. Triglycerides concentration was quantified in the supernatant fraction using a colorimetric assay (ab65336, Abcam, Paris, France) by measuring OD at 570 nm. The ratio NAD/NADH was determined using a quantification kit (MAK037; SigmaAldrich, St Quentin, France) on extracts prepared from 20 mg pancreas tissue. Samples were homogenized in the extraction buffer and clarified by centrifugation. Supernatant was deproteinized by filtration through a 10-kDa cutoff spin filter (Millipore SAS, Molsheim, France). The assay was then performed according to the manufacturer's instructions.
# As expected, mice fed HFD rapidly gained more weight than mice fed control diet and developed fasting hyperglycemia and marked glucose intolerance (FIG. 1A-1F).
smiles,measurement,setting,value
"Cc1ccc(O)c(O)c1 [4-MC, 4-methylcatechol]",adiposity index (retroperitoneal fat pads to body weight),"both diet groups (CHD, HFD), 6 weeks, vs saline",significant reduction
same,liver triglycerides content,"both diet groups, vs saline",significant reduction
same,cumulative glycemia,"both diets, IPGTT, vs saline",reduced
same,glucose tolerance,"both diets, IPGTT, vs saline",improved glucose tolerance
same,ΔG,"both diets, IPGTT, vs saline",reduced
same,fasting glycemia,"both diets, vs saline",reduced
same,insulin secretion,"both diets, vs saline",increased insulin secretion
same,liver weight,mice fed HFD or control diet,significant reduction
same,pancreas weight,mice fed HFD or control diet,increased pancreas weight
same,body growth,"mice fed chow diet or HFD, chronic treatment, vs saline",strong reduction
same,BMI,"mice fed chow diet or HFD, vs saline",strong reduction
